Calls of active or inactive are those of the source. The rule behind the calls is not given here.

The species entered for assay [1] is Danio rerio. The assay is described as follows: Inhibition of FGFR-mediated distal pectoral fin development in Zebrafish embryo at 700 nM by in situ hybridization method at 48-60 hrs post fertilization stage.
The species entered for assay [2] is Danio rerio. The assay is described as follows: Inhibition of FGFR-mediated mkp3 mRNA expression in Zebrafish embryo mid-hind brain boundary at 40 uM by in situ hybridization analysis.
The species entered for assay [3] is Danio rerio. As to the kind of experiment: Inhibition of FGFR-mediated mkp3 mRNA expression in Zebrafish embryo tailbud region at 40 uM by in situ hybridization analysis.
For assay [4], the species on record is Danio rerio. The assay is described as follows: Inhibition of FGFR-mediated mkp3 mRNA expression in Zebrafish dorsal forebrain at 40 uM by in situ hybridization analysis. The class given is tissue-based.
For assay [5], the species on record is Danio rerio. The assay is described as follows: Inhibition of FGFR-mediated fin development in Zebrafish embryo at 40 uM by in situ hybridization method at 48-60 hrs post fertilization stage.

In general, inhibition refers to how much of the control response was suppressed. On to `Cc1c[nH]c(/C=C2\C(=O)Nc3ccccc32)c1CCC(=O)O`, for which the inhibition in the assay listed under Danio rerio [1] was found to be 72%; in the assay listed under Danio rerio [5], 76%. The inhibition entry in the assay listed under Danio rerio [2], in the assay filed under Danio rerio [3] and in the assay listed under Danio rerio [4] was “Active” each time.
